Laboratory results published in US8722689B2, “Synergistic combination of flumetsulam or diclosulam with diiodomethyl-P-tolylsulfone” (Dow Global Technologies LLC, priority 2010, dated 2014).

Experiments:
Format in all cases: cell-based
[1] = system: Alternaria alternata mixed with Trichoderma viride (AaTv); test: Fungal efficacy testing, modified ASTM 5590, paint film (Flumetsulam study); details: four weeks; for % inhibition: at the total conc given; for Total conc, ppm: concentration in paint chosen as minimum inhibitory concentration for SI, 30 C
Protocol: (§1) Sample preparation: A single or blend of biocides was post added into white acrylic latex paint free of biocides to give a maximum total active ingredient/s concentration tested. This paint was then diluted with a biocide free acrylic latex paint to give targeted concentrations for the testing. Depending on the type of biocide blends tested, the total biocides concentrations varies from 200 to 5000 ppm. After biocides addition or dilution, each sample was hand mixed for at least a minute until uniformity is achieved. Each of the paint samples as well as a control sample (containing no biocide) were used to prepare films on black plastic-vinyl chloride/acetate copolymer panels (LENETA, Mahwah, N.J.) using a 3 mil (0.0762 mm) bird bar applicator. The panels were thoroughly dried for at least 2 days avoiding direct exposure to sunlight. Square discs (0.5 inch; 1.27 cm^2) were cut out from each panel and were used as the substrate for fungal and algal efficacy tests. This sample size allowed for an agar border when the sample disc was placed into the well of the test plate. Each sample was tested in duplicate
(§2) Test conditions: The appropriate media (BOLD'S 3N for Chlorophytes, BG-11 for Cyanobacteria, and PDA for fungi) were used to support microbial growth. The test plates were maintained at room temp (25° C.-26° C.), in a cycled light-dark environment, for four weeks for algae. Plates for fungal challenge tests were maintained at 30 C for four weeks. At the end of the incubation period the samples were scored for percent area covered by visible microbial growth.
(§3) ASTM 5590 is a standard accelerated test method for determining resistance of various coatings (including paints) to fungal defacement. To accommodate for high-throughput screening, this method was scaled down from petri plates to 6-well plates. To set up the test, an agar plug was placed at the bottom of each well of the sterile 6-well plate. A single coupon was placed with a pair of sterile forceps at the center of the agar plug (on top) with the painted surface facing upwards. Fungal inoculums were prepared by mixing equal concentrations (1×10^6 cfu/ml) and equal volumes (depending on number of samples to be tested) of like growing organisms. For Flumetsulam+various IT synergy study, three pools of mixed fungi were prepared as the test inoculum. Cladosporium herbarum was mixed with Aureobasidium pullulans; Aspergillus niger was mixed with Penicillium funiculosum and Alternaria alternata was mixed with Trichoderma viride. For Diclosulam+various IT synergy study, all above fungi were mixed as a single pool. Each well was inoculated with 400 μl of organism mixture (1×10^6 cfu/ml) making sure that the whole surface (paint film as well as the agar surrounding it) was evenly covered. The plates were incubated at 30° C. in presence of moisture, for a period of four weeks. The total percent area covered was evaluated and recorded at the end of each week after the 2nd week and recorded in increments of 5%.
(§4) The SI is calculated based on […].

[2] = system: Aspergillus niger mixed with Penicillium funiculosum (AnPf); test: as above; details: four weeks; for % inhibition: at the total conc given; for Total conc, ppm: concentration in paint chosen as minimum inhibitory concentration for SI, 30 C
Protocol: as §1, §2, §3, §4

[3] = system: Cladosporium herbarum mixed with Aureobasidium pullulans (ApCh); test: as above; details: four weeks; for % inhibition: at the total conc given; for Total conc, ppm: concentration in paint chosen as minimum inhibitory concentration for SI, 30 C
Protocol: as §1, §2, §3, §4

[4] = system: Chlorella sp., Chlorella kessleri, and Nostoc commune (Cs + Ck + Nc); test: Algal efficacy testing, modified ASTM 5589, paint film (Flumetsulam study); details: four weeks; for % inhibition: at the total conc given; for Total conc, ppm: concentration in paint chosen as minimum inhibitory concentration for SI, 25-26 C
Protocol: as §1, §2
(§5) ASTM 5589 is a standard accelerated test method for determining resistance of various coatings (including paints) to algal defacement. To accommodate for high-throughput screening, this method was scaled down from petri plates to 6-well plates. A single coupon was placed with a pair of sterile forceps at the center of the agar plug (on top) with the painted surface facing upwards. Algal inoculums were prepared by mixing equal concentrations (1×10^6 cfu/ml) and equal volumes (depending on number of samples to be inoculated) of like growing organisms.
(§6) In Flumetsulam+various IT synergy study, three pool of mixed algae were prepared as the test inoculum, Gloeocapsa sp. and Oscillatoria sp. a mix of cyanobacteria grown on BG-11 media; Chlorella sp., Chlorella kessleri, and Nostoc commune are unicellular chlorphytes that were mixed and grown on Bold media; Trentepohlia aurea, Tretepohlia odorata, and Calotrix parientina are filamentous algae that were mixed and grown on Bold media.
(§7) Each well that contains a tested coupon was inoculated with 400 μl of organism mixture (1×10^6 cfu/ml) making sure that the whole surface (paint film as well as the agar surrounding it) was evenly covered. The plates were incubated at room temp (25° C.-26° C.) with cyclic exposure to light (OTT-Lite model # OTL4012P, 40 Watt, 26KLumen) and dark phases, for a period of four weeks. The total area covered was evaluated at the end of each week according to percent area covered in 5% increments.
as §4

[5] = system: Trentepohlia aurea, Tretepohlia odorata, and Calotrix parientina (Cp + To + Ta); test: as above; details: four weeks; for % inhibition: at the total conc given; for Total conc, ppm: concentration in paint chosen as minimum inhibitory concentration for SI, 25-26 C
Protocol: as §1, §2, §5, §6, §7, §4

[6] = system: Gloeocapsa sp. and Oscillatoria sp. (Gs + Os); test: Algal efficacy testing, modified ASTM 5589, paint film (both studies); details: four weeks; for % inhibition: at the total conc given; for Total conc, ppm: concentration in paint chosen as minimum inhibitory concentration for SI
Protocol: as §1, §2, §5, §6
(§8) In Diclosulam+various IT synergy study, only two pools of mixed algae were prepared; Gloeocapsa sp. and Oscillatoria sp. grown on BG-11 media and Chlorella sp., Chlorella kessleri, Nostoc commune, Trentepohlia aurea, Tretepohlia odorata, and Calotrix parientina grown on Bold media
as §7, §4

[7] = system: Aa + Tv + An + Pf + Ap + Ch (all fungi mixed as a single pool); test: Fungal efficacy testing, modified ASTM 5590, paint film (Diclosulam study, single pool); details: four weeks; for Total conc, ppm: Diclosulam:DIMTS study, concentration in paint used for SI, 30 C; for % inhibition: at the total conc given
Protocol: as §1, §2
as §3, with “Each well was inoculated with 400 μl of organism mixture (1×10^6 cfu/ml) making sure that the whole surface (paint film as well as the agar surrounding it) was evenly covered. The plates were incubated at 30° C. in presence of moisture, for a period of four weeks.” left out
as §4

[8] = system: Cp + To + Ta + Cs + Ck + Nc (algae grown on Bold media); test: Algal efficacy testing, modified ASTM 5589, paint film (Diclosulam study); details: four weeks; for Total conc, ppm: Diclosulam:DIMTS study, concentration in paint used for SI; for % inhibition: at the total conc given
Protocol: as §1, §2, §5, §8
Each well that contains a tested coupon was inoculated with 400 μl of organism mixture (1×10^6 cfu/ml) making sure that the whole surface (paint film as well as the agar surrounding it) was evenly covered. […] The total area covered was evaluated at the end of each week according to percent area covered in 5% increments.
as §4

`Cc1ccc(S(=O)(=O)C(I)I)cc1` [DIMTS, diiodomethyl-p-tolylsulfone] was tested, and the “% inhibition” value [1] was 70%, the “Total conc, ppm” value [1] was 2500 ppm and the “% inhibition” value [2] was 100%. For the same compound, the “Total conc, ppm” value [2] was 625 ppm, the “% inhibition” value [3] was 100% and the “Total conc, ppm” value [3] was 625 ppm. For the same compound, the “% inhibition” value [4] was 100%, the “Total conc, ppm” value [4] was 1250 ppm and the “% inhibition” value [5] was 100%. The “Total conc, ppm” value [5] was 1250 ppm, the “% inhibition” value ([6]; Diclosulam:DIMTS study) was 85% and the “Total conc, ppm” value ([6]; Diclosulam:DIMTS study) was 2500 ppm. The “% inhibition” value ([6]; Flumetsulam:DIMTS study) was 85%, the “Total conc, ppm” value ([6]; Flumetsulam:DIMTS study) was 625 ppm and the “Total conc, ppm” value [7] was 2500 ppm. For the same compound, the “% inhibition” value [7] was 0%, the “Total conc, ppm” value [8] was 625 ppm and the “% inhibition” value [8] was 100%.
In the case of `CCOc1nc(F)cc2nc(S(=O)(=O)Nc3c(Cl)cccc3Cl)nn12` [Diclosulam, N-(2,6-dichlorophenyl)-5-ethoxy-7-fluoro[1,2,4]triazolo[1,5-c]pyrimidine-2-sulfonamide], the “% inhibition” value ([6]; Diclosulam:DIMTS study) is reported as 85%, the “Total conc, ppm” value ([6]; Diclosulam:DIMTS study) is reported as 875 ppm and the “Total conc, ppm” value [7] is reported as 3500 ppm. The “% inhibition” value [7] was 0%, the “Total conc, ppm” value [8] was 437.5 ppm and the “% inhibition” value [8] was 100%.
For `Cc1ccn2nc(S(=O)(=O)Nc3c(F)cccc3F)nc2n1` [Flumetsulam, N-(2,6-difluorophenyl)-5-methyl[1,2,4]triazolo[1,5-a]pyrimidine-2-sulfonamide], the “% inhibition” value [1] was 70%, the “Total conc, ppm” value [1] was 3500 ppm and the “% inhibition” value [2] was 40%. The “Total conc, ppm” value [2] was 3500 ppm, the “% inhibition” value [3] was 70% and the “Total conc, ppm” value [3] was 3500 ppm. For the same compound, the “% inhibition” value [4] was 0%, the “Total conc, ppm” value [4] was 3500 ppm and the “% inhibition” value [5] was 95%. For the same compound, the “Total conc, ppm” value [5] was 3500 ppm, the “% inhibition” value ([6]; Flumetsulam:DIMTS study) was 80% and the “Total conc, ppm” value ([6]; Flumetsulam:DIMTS study) was 2625 ppm.
